Here are results for two molecules from patent US5773422A, “Avermectin formulation” (priority 1996, dated 1998).

The LD50 is the dose expected to kill half of the subjects tested.

The conditions of data set [1]: cited from earlier work.
A short description of data set [2]: solubility of avermectins/ivermectin in N-methylpyrrolidone and 2-pyrrolidone formulations; water tolerance (clear solution becomes milky or cloudy as excess water is added). It counts as physicochemical. On the procedure: Both N-methylpyrrolidone and 2-pyrrolidone have been approved as a safe solvent for injection, but only for oxytetracycline; which is chemically unlike ivermectin. […] Ivermectin can be present in the formulation from 0.1% to 40% (w/v). N-methylpyrrolidone (also known as M-pyrole) can be present from 5% to essentially 100% (v/v) of the formulation. The specific gravity of N-methylpyrrolidone is 1.027 at 25° C. relative to water at 4° C. Additional compounds can be included as desired, e.g. propylene glycol up to 95% by volume, water up to 90% by volume and Clorsulon (an antiparasitic agent frequently co-administered with ivermectin) up to 40% by weight. The formulation can contain water up to amounts which limit avermectin solubility. The maximum amount of water which can be included depends upon the amount of avermectin and the presence of co-solvents such as propylene glycol, and presence of detergent, as illustrated in the Examples. The amount of water which can be present is limited only by avermectin solubility. The presence of too much water can be readily detected because the clear solution becomes milky or cloudy as excess water is added. Where N-methylpyrrolidone is the sole solvent, up to 30% by volume of water can be included in a formulation containing 1% (w/v) ivermectin. If less ivermectin is present, the amount of water can be increased somewhat. If 10% (v/v) propylene glycol is a co-solvent with 20% (w/v) N-methylpyrrolidone, 0.5% ivermectin remains soluble in the presence of water up to about 70% by volume. Compositions containing 2-pyrrolidone completely or partially substituted for N-methylpyrrolidone in the exemplified formulations are equivalent in their solubility properties. As noted above, compositions containing N-methylpyrrolidone are preferred.

The test system of the next data set is Rat. Particulars: cited from earlier work.
For data set [3] the following is noted: cited from earlier work. The source holds these as a separate data set.
The nature of data set [4]: pain and tissue reaction at the injection site. Format: in vivo. Particulars: compared with 2-pyrrolidone.

Regarding 22,23-dihydroavermectin B1 [ivermectin], the “solubility in 1-butanol” value in data set [1] (1-butanol) was 330 mg/mL. Besides, in data set [1] (2-propanol), the “solubility in 2-propanol” value is 70 mg/mL. The solubility in acetone in data set [1] (acetone) was 81 mg/mL. For the same molecule, the solubility in methylethylketone in data set [1] (methylethylketone) was 320 mg/mL. Moreover, the solubility in water entry in data set [1] (water, room temperature) is on record as “about 0.005 mg per ml”. For the same molecule, the “water in the presence of which ivermectin remains soluble” value in data set [2] (0.5% ivermectin, 10% (v/v) propylene glycol co-solvent with 20% (w/v) N-methylpyrrolidone) is recorded as “up to 70 % by volume”. Besides, in data set [2] (2-pyrrolidone, to permit formulation of therapeutic compositions), the “solubility in 2-pyrrolidone” value is “sufficiently soluble”. Also, in data set [2] (N-methylpyrrolidone sole solvent, 1% (w/v) ivermectin), the “amount of water which can be included (limited by avermectin solubility)” value is recorded as “up to 30 % by volume”. In addition, the “solubility in N-methylpyrrolidone” value in data set [2] (N-methylpyrrolidone, to permit formulation of therapeutic compositions) was “sufficiently soluble”.

`CN1CCCC1=O` [N-methylpyrrolidone]: the median lethal dose (LD50) in the data set on Rat (Rat, oral) was 4200 mg/kg. Also, in the data set with Rat, the oral toxicity result is listed as “very low order of oral toxicity”. Also, the “time in which most of the compound is eliminated by the kidneys” value in data set [3] is at most 24 h. In addition, in data set [4], the “pain at the injection site” value is recorded as “less pain at the injection site” and the tissue reaction result is on record as “less tissue reaction”.
